Measurements as given in PubChem BioAssay AID1963839 (Molecular Pharmacology Branch, DTP, NCI, 2024).
pIC50: −log10 of the molar value. Several values for one entry are separate records, joined by “and”; a condition that tells them apart may be missing. Equal values may be shown once.

Test system: 817829-284-R-J1-PDC complex spheroid viability
Assay: Anticancer human tumor 817829-284-R-J1-PDC patient-derived colon adenocarcinoma cell line growth inhibition [POLQ]
Details: for viability, T/C: stronger effect = lower value
Procedure: Multicellular complex tumor spheroid response to Polymerase (POL) inhibitors (novobiocin, ART-558, RP6685) in combination with a variety of drugs and investigational agents in selected tumor cell lines
The POL inhibitors (novobiocin, ART-558, and RP6685) were evaluated both individually and in combination with standard of care and investigational anticancer small molecules within a complex spheroid model of solid tumors. . Complex spheroids include a stromal component modeled by human endothelial cells (HUVEC) and fibroblasts modeled by human mesenchymal stem cells (MSCs). The concentration ranges selected for each drug and investigational agent were based upon clinically achievable concentrations if the clinical Cmax of the agent was known.
Compounds. The drugs and investigational agents: novobiocin (NSC847541), ART-558 (NSC835418), RP-6685 (NSC848927), peposertib (NSC802822), ceralasertib (NSC780249), elimusertib (NSC800525), camonsertib (NSC841442), AZD-1390 (NSC803789), olaparib (NSC753686), talazoparib (NSC767125), rucaparib (NSC756644), sotorasib (NSC818433), MRTX-1133 (NSC836407), SN-38 (NSC673596), topotecan (NSC609699), epotoside (NSC141540), doxorubicin (NSC123127), gemcitabine (NSC613327), 5-fluorouracil (NSC19893), paclitaxel (NSC125973), vemurafenib (NSC761431), MSA-2 (NSC828583), SN-011 (NSC837082), adavosertib (NSC754352), prexasertib (NSC758257), carboplatin (NSC241240) and oxaliplatin (NSC266046), were obtained from the National Cancer Institute (NCI) Developmental Therapeutics Program Chemical Repository (21). The FDA-approved anticancer drug set is available from the Developmental Therapeutics Program at https://dtp.cancer.gov/organization/dscb/obtaining/. […] The stock solutions were prepared in dimethyl sulfoxide (DMSO, Sigma-Aldrich, St. Louis, MO, cat. D2650), except for the platinum compounds which were prepared in saline (Quality Biological, Gaithersburg, MD, cat. 114-055-101), at 800-fold the tested concentration and stored at -70 degrees C prior to their use. All drugs and investigational agents were tested over a range starting from a high concentration at or near the clinical Cmax and decreasing in half-log increments. If the clinical Cmax for an agent had not been determined, the highest concentration tested was 10 microM, except for SN-38, which was tested at a high concentration of 1 microM.
Cell Culture. All cells were maintained in an incubator at 37 degrees C and 5% CO2 with 95% humidity. The PDC lines were cultured according to standard operating procedures established by the NCI PDMR (https://pdmr.cancer.gov). Table 3 of the manuscript, lists the cell lines along with the number of the three cell types plated to form the mct-spheroids and media for tumor cell growth. After thawing, all PDC lines, except 997537-175-T-J1-PDC and 415267-285-R-J2-PDC, were cultured in Matrigel-coated flasks prepared with a working solution of 1X Ham's F-12 nutrient mix, without supplementation (Thermo Fisher Scientific, cat. 11765054), 100 U/mL penicillin-streptomycin (Thermo Fisher Scientific, cat. 15140122), and 2.5% Matrigel (Corning Inc., Corning, NY, cat. 354248) for the first three passages. The two PDC lines 997537-175-T-J1-PDC and 415267-285-R-J2-PDC were cultured on uncoated flasks. The 857933-349-R-J2-PDC line was cultured in 6C/Colon 1B media containing advanced DMEM/F-12 (Thermo Fisher Scientific, cat. 12634028), 10 mM HEPES (Thermo Fisher Scientific, cat. 15630080), 1X GlutaMAX supplement (Thermo Fisher Scientific, cat. 35050061), 0.1 mg/mL primocin (InvivoGen, San Diego, CA, cat. ant-pm-2), 10% defined fetal bovine serum, heat inactivated (HyClone Laboratories Inc., Logan, UT, cat. SH30070.03HI), 50% L-WRN conditioned media (ATCC, cat. CRL-3276), 1.25 mM N-Acetyl-L-cysteine (Sigma-Aldrich, cat. A9165), 10 mM nicotinamide (Sigma-Aldrich, cat. N0636), 1X B-27 supplement (Thermo Fisher Scientific, cat. 17504044), 1X N-2 supplement (Thermo Fisher Scientific, cat. […]

[1] = curve of first compound, second compound 0.0316 µM
[2] = curve of first compound, second compound 0.1 µM
[3] = curve of first compound, second compound 0.316 µM
[4] = curve of first compound, second compound 1 µM
[5] = curve of first compound, second compound 3.16 µM
[6] = curve of first compound, second compound 10 µM
[7] = second compound 0.0316 µM, first compound 0.0316 µM
[8] = second compound 0.0316 µM, first compound 0.1 µM
[9] = second compound 0.0316 µM, first compound 0.316 µM
[10] = second compound 0.0316 µM, first compound 1 µM
[11] = second compound 0.0316 µM, first compound 3.16 µM
[12] = second compound 0.0316 µM, first compound 10 µM
[13] = second compound 0.1 µM, first compound 0.0316 µM
[14] = second compound 0.1 µM, first compound 0.1 µM
[15] = second compound 0.1 µM, first compound 0.316 µM
[16] = second compound 0.1 µM, first compound 1 µM
[17] = second compound 0.1 µM, first compound 3.16 µM
[18] = second compound 0.1 µM, first compound 10 µM
[19] = second compound 0.316 µM, first compound 0.0316 µM
[20] = second compound 0.316 µM, first compound 0.1 µM
[21] = second compound 0.316 µM, first compound 0.316 µM
[22] = second compound 0.316 µM, first compound 1 µM
[23] = second compound 0.316 µM, first compound 3.16 µM
[24] = second compound 0.316 µM, first compound 10 µM
[25] = second compound 1 µM, first compound 0.0316 µM
[26] = second compound 1 µM, first compound 0.1 µM
[27] = second compound 1 µM, first compound 0.316 µM
[28] = second compound 1 µM, first compound 1 µM
[29] = second compound 1 µM, first compound 3.16 µM
[30] = second compound 1 µM, first compound 10 µM
[31] = second compound 3.16 µM, first compound 0.0316 µM
[32] = second compound 3.16 µM, first compound 0.1 µM
[33] = second compound 3.16 µM, first compound 0.316 µM
[34] = second compound 3.16 µM, first compound 1 µM
[35] = second compound 3.16 µM, first compound 3.16 µM
[36] = second compound 3.16 µM, first compound 10 µM
[37] = second compound 10 µM, first compound 0.0316 µM
[38] = second compound 10 µM, first compound 0.1 µM
[39] = second compound 10 µM, first compound 0.316 µM
[40] = second compound 10 µM, first compound 1 µM
[41] = second compound 10 µM, first compound 3.16 µM
[42] = second compound 10 µM, first compound 10 µM
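Note: spheroids exposed to compounds for 7 days.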
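Throughout, for viability, T/C: 100% = DMSO vehicle-treated spheroids.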

## CC1COCCN1c1cc(C2(O)CC3CCC(C2)O3)c2cnn(-c3ccn[nH]3)c2n1 (stereo unspecified) + Nc1ccc(C#CCN(C(=O)Cc2ncc(C(F)(F)F)cc2C(F)(F)F)c2ccc(F)cc2)nn1
[1]
  pIC50: > 7.50
[2]
  pIC50: > 7.50
[3]
  pIC50: > 7.50
[4]
  pIC50: > 7.50
[5]
  pIC50: > 7.50
[6]
  pIC50: > 7.50
[7]
  viability, T/C: 26.3%
[8]
  viability, T/C: 7.07%
[9]
  viability, T/C: 4.65%
[10]
  viability, T/C: 3.5%
[11]
  viability, T/C: 3.48%
[12]
  viability, T/C: 3.16%
[13]
  viability, T/C: 36%
[14]
  viability, T/C: 9.38%
[15]
  viability, T/C: 4.42%
[16]
  viability, T/C: 3.56%
[17]
  viability, T/C: 2.98%
[18]
  viability, T/C: 2.77%
[19]
  viability, T/C: 25.9%
[20]
  viability, T/C: 10.1%
[21]
  viability, T/C: 4.5%
[22]
  viability, T/C: 3.48%
[23]
  viability, T/C: 3.21%
[24]
  viability, T/C: 2.42%
[25]
  viability, T/C: 29.4%
[26]
  viability, T/C: 10.3%
[27]
  viability, T/C: 4.41%
[28]
  viability, T/C: 3.09%
[29]
  viability, T/C: 2.69%
[30]
  viability, T/C: 2.28%
[31]
  viability, T/C: 29.5%
[32]
  viability, T/C: 7.74%
[33]
  viability, T/C: 3.99%
[34]
  viability, T/C: 2.88%
[35]
  viability, T/C: 2.96%
[36]
  viability, T/C: 2.33%
[37]
  viability, T/C: 22%
[38]
  viability, T/C: 8.66%
[39]
  viability, T/C: 3.65%
[40]
  viability, T/C: 3.1%
[41]
  viability, T/C: 2.74%
[42]
  viability, T/C: 2.24%

## O=C(c1cc(Cc2n[nH]c(=O)c3ccccc23)ccc1F)N1CCN(C(=O)C2CC2)CC1 + Nc1ccc(C#CCN(C(=O)Cc2ncc(C(F)(F)F)cc2C(F)(F)F)c2ccc(F)cc2)nn1
[1]
  pIC50: 5.29
[2]
  pIC50: 5.60
[3]
  pIC50: 5.40
[4]
  pIC50: 5.34
[5]
  pIC50: 5.37
[6]
  pIC50: 5.32
[7]
  viability, T/C: 118%
[8]
  viability, T/C: 96%
[9]
  viability, T/C: 93.7%
[10]
  viability, T/C: 91.6%
[11]
  viability, T/C: 58.1%
[12]
  viability, T/C: 32.9%
[13]
  viability, T/C: 108%
[14]
  viability, T/C: 103%
[15]
  viability, T/C: 83.2%
[16]
  viability, T/C: 66.8%
[17]
  viability, T/C: 47%
[18]
  viability, T/C: 27.4%
[19]
  viability, T/C: 90.3%
[20]
  viability, T/C: 94%
[21]
  viability, T/C: 98.1%
[22]
  viability, T/C: 93.5%
[23]
  viability, T/C: 55%
[24]
  viability, T/C: 30.9%
[25]
  viability, T/C: 106%
[26]
  viability, T/C: 94.5%
[27]
  viability, T/C: 89.6%
[28]
  viability, T/C: 85.2%
[29]
  viability, T/C: 58.2%
[30]
  viability, T/C: 27.8%
[31]
  viability, T/C: 113%
[32]
  viability, T/C: 104%
[33]
  viability, T/C: 112%
[34]
  viability, T/C: 92.5%
[35]
  viability, T/C: 58.6%
[36]
  viability, T/C: 26%
[37]
  viability, T/C: 104%
[38]
  viability, T/C: 94.8%
[39]
  viability, T/C: 86.7%
[40]
  viability, T/C: 94.8%
[41]
  viability, T/C: 63.5%
[42]
  viability, T/C: 25.1%

## CC1COCCN1c1cc(C2(S(C)(=N)=O)CC2)nc(-c2ccnc3[nH]ccc23)n1 (stereo unspecified)
Compound 0.0316 µM
  viability, T/C: 110% and 98% and 105%
Compound 0.1 µM
  viability, T/C: 96.4% and 67.8% and 94.3%
Compound 0.316 µM
  viability, T/C: 65% and 52.9% and 63.1%
Compound 1 µM
  viability, T/C: 33.9% and 23.4% and 25.4%
Compound 3.16 µM
  viability, T/C: 8.76% and 7.96% and 7.97%
Compound 10 µM
  viability, T/C: 4.29% and 4.9% and 3.97%
Curve of compound
  pIC50: 6.26 and 6.56 and 6.33
